The test system of the experiment is cultured neonatal rat cardiomyocytes. Put plainly: Effects on hypoxic cardiomyocytes. The format is cell-based.

With `CNC(=O)[C@H]1O[C@@H](n2cnc3c(NCc4cccc(I)c4)nc(Cl)nc32)[C@H](O)[C@@H]1O` [Cl-IB-MECA, 2-chloro-N^6-(3-iodobenzyl)-5′-N-methylcarboxamidoadenosine], the “anti-hypoxic protective potency (concentration range)” value was about 0.1 µM. Also, where the note is “100 nM”, the “cardioprotection of hypoxic cardiomyocytes” value is listed as “provided cardioprotection”.

Consider `CCCOC(=O)c1c(-c2ccccc2)nc(CC)c(C(=O)SCC)c1CCC` [MRS1523, 5-propyl-2-ethyl-4-propyl-3-(ethylsulfanylcarbonyl)-6-phenylpyridine-5-carboxylate], for which the “antagonism of the protective effect of 6 (1 nM)” value (antagonist at 1 μM, LDH release or PI staining) is “completely reversed”.

(Values after publication PMC3278557 (Pharmacological Research, 2011).)
